By AC50 is commonly meant the midpoint of the concentration-response curve, whichever way the signal moves. In general, EC50 refers to the concentration that produces a half-maximal response.

One test deals with Paired box protein Pax-8 (Homo sapiens, UniProt Q06710). The test can be described thus: PAX8 transcriptional activity inhibition in RMG-I – RMG-I cells, luciferase, cherry-pick, dose response (AID 687027).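 Note: luciferase reporter driven by Pax8 target thyroperoxidase promoter measured by SteadyGlo luminescence.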 It is filed as functional, cell-based.
Sequence of Paired box protein Pax-8 (Q06710 whole entry): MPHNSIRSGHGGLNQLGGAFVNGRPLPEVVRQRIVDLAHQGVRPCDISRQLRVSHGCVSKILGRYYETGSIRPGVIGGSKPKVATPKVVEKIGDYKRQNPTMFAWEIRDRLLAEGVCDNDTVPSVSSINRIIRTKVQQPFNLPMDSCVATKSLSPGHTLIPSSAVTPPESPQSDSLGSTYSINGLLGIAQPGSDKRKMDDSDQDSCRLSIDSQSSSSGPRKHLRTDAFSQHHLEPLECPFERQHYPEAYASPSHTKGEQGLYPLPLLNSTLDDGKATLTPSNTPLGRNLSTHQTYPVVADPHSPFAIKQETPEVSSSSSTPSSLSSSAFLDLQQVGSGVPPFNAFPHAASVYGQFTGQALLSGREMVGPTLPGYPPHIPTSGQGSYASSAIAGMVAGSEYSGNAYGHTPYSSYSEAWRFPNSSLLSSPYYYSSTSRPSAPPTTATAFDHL
Test [1] in a line: inhibitors acting on PAX2 in cells – cell-based, plate reader, dry powder samples, selectivity assay for PAX8 inhibitor project, dose response (AID 743048).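 Note: HEK293 cells carrying a WT1 promoter luciferase reporter driven by expressed Pax2; potency is for inhibition of Pax2 driven reporter signal.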 It is filed as functional.
The nature of test [2]: PAX5 cellular inhibition readout – cell-based, plate reader, dry powder samples, selectivity assay for PAX8 inhibitor project, dose response (AID 743047).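 Note: HEK293 cells carrying a Pax5 driven CD19 promoter luciferase reporter; potency of inhibitors that lower reporter luminescence.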 It is filed as functional.
Test [3] in a line: OVCAR4 cell viability loss – plate reader, dry powder, SA11, cytotoxicity control for PAX8 inhibitor project, dose response (AID 743150). It is filed as functional, cell-based. The conditions noted are these: OVCAR-4.
Test [4] can be described thus: OV-90 cell viability loss – plate reader, dry powder, SA8, PAX8 inhibitor project, dose response (AID 743149). It is filed as functional, cell-based.
Test [5] in a line: PAX8-dependent cell viability loss – plate reader, dry powder, dose response (AID 743049). It counts as functional, cell-based.
Test [6] has as its system Streptococcus sp. 'group A'. As to the kind of experiment: Streptococcus pyogenes SK(-)GAS viability under kanamycin – luminescence, BacTiterGlo, confirmation, counter-screen for streptokinase expression inhibitor project, dose response (AID 1900). It counts as functional, organism-based.
Another test deals with T1, Streptokinase A (Streptococcus pyogenes serotype M1, UniProt P10520).
T1 sequence (P10520 whole entry): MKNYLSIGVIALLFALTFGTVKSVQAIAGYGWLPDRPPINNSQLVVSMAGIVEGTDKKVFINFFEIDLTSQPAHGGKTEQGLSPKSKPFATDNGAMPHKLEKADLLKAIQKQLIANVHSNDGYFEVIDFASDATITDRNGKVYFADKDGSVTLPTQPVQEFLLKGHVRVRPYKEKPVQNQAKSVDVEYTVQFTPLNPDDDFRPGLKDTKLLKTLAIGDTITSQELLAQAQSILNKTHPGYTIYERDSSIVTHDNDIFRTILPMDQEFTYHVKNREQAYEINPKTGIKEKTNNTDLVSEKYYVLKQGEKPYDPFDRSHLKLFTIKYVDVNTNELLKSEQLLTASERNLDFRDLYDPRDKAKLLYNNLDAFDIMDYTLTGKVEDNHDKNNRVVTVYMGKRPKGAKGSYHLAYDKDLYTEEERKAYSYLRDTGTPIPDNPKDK
The test can be described thus: viability-normalized secreted streptokinase activity reduction – plasminogen activation absorbance, OD405, dose response (AID 1914).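 Note: secreted streptokinase activity via plasminogen activation per viability signal from cell pellet.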 It is filed as functional, Streptococcus pyogenes M1 GAS.

A further test deals with Streptococcus. The test can be described thus: GAS UMAA2166 growth inhibition – luminescence, BacTiterGlo, counter-screen for streptokinase expression inhibitor project, dose response (AID 1915).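 Note: potency for reduction of bacterial viability or growth.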 It is filed as functional, organism-based. For orientation: The purpose of a counterscreen is to sort out artefacts and off-target activity.
The target of test [7] is T2, Probable nicotinate-nucleotide adenylyltransferase (Staphylococcus aureus (strain N315), UniProt P65502). It counts as functional, Staphylococcus aureus subsp. aureus N315.
T2 sequence (P65502 whole entry): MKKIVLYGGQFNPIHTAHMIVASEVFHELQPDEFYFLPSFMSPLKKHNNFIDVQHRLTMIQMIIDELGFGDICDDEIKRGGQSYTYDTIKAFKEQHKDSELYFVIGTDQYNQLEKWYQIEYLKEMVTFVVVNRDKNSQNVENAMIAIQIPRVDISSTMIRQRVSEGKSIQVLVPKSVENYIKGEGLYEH
The target of test [8] is T2, Probable nicotinate-nucleotide adenylyltransferase. It is filed as functional, Staphylococcus aureus subsp. aureus N315. Conditions: read-out: IC50_Mean.
The nature of test [9]: glucagon-like peptide-1 release potency in STC-1, concentration-response, half-maximal inhibitory concentration in the STC-1 line (AID 1117345). It counts as functional, cell-based.
The nature of test [10]: Potency on glucagon-like peptide 1 release, dose-response in NCI-H716 cell line, half maximal inhibitory concentration (AID 1117344). It is filed as functional, cell-based.
A short description of test [11]: Dd2 parasite growth inhibition in erythrocytes – SYBR Green, dry powder samples, set 9, dose response (AID 1159568). It counts as functional, cell-based.
For test [12], the target named is T3, Potassium channel subfamily K member 9 (Homo sapiens, UniProt Q9NPC2). The test can be described thus: TASK3 channel blockers, electrophysiology – cell-based, automated electrophysiology, selectivity assay for TASK1 (KCNK3) inhibitor project, SAR follow-up (AID 652210). It counts as functional.
T3 sequence (Q9NPC2 whole entry): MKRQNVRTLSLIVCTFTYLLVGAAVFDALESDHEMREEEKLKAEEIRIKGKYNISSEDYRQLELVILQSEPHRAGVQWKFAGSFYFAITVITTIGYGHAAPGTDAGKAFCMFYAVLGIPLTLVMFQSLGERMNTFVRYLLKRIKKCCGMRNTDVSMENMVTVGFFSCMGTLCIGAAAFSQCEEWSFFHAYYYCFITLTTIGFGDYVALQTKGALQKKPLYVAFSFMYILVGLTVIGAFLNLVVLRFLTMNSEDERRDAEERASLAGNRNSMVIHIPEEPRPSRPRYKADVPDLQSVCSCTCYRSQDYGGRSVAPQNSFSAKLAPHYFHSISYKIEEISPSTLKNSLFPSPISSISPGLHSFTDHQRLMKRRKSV
The target in test [13] is T3, Potassium channel subfamily K member 9. The test can be described thus: KCNK9 flux blockade, concentration-response – cell-based, FluxOR thallium flux, selectivity assay for TASK1 inhibitor project, SAR follow-up (AID 652211).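 Note: potency is for inhibitors of the channel.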 It is filed as functional.
The target in test [14] is Potassium channel subfamily K member 3 (Rattus norvegicus, UniProt O54912). The test can be described thus: SAR analysis for the identification of selective inhibitors of the two-pore domain potassium channel TASK1(KCNK3):Automated Electrophysiology. It counts as functional.
Sequence of Potassium channel subfamily K member 3 (Rattus norvegicus, UniProt O54912) (O54912 whole entry, the tested form may be a part): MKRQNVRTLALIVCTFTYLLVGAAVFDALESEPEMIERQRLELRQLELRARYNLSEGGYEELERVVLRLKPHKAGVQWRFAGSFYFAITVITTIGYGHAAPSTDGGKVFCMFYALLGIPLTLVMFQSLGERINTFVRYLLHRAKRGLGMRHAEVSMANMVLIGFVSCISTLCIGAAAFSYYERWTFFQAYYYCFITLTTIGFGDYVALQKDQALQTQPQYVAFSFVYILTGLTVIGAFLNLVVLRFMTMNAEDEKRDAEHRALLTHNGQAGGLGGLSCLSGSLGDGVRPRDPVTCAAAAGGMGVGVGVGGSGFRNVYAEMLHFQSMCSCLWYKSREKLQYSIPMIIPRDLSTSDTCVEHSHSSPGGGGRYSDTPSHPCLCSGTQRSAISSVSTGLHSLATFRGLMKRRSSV
Test [15] has as its target Potassium channel subfamily K member 3 (Homo sapiens, UniProt O14649). As to the kind of experiment: inhibition of human KCNK3 channel flux – CHO cells, FluxOR thallium flux, SAR follow-up (AID 652212). It is filed as functional.

The source made the active and inactive calls.
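Throughout, for IC50 Mean: confirmatory dose-response retesting of NadD inhibitor hits first found in an ultra-high-throughput screen.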

Sequence of Potassium channel subfamily K member 3 (Homo sapiens, UniProt O14649) (O14649 whole entry): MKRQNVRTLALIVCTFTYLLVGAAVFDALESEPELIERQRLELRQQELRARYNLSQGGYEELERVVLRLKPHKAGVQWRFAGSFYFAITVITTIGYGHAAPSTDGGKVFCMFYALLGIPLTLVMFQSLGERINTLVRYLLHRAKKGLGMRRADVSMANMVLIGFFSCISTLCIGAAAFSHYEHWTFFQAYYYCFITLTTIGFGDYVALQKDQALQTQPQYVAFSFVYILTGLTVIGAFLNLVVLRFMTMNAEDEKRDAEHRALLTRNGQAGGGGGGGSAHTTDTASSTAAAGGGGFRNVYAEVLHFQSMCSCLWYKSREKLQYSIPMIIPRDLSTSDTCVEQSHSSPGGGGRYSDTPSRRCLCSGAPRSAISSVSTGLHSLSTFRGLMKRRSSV

With `COc1cccc(-c2ccc([C@H]3[C@@H](CO)N(C(=O)Cc4ccccc4)[C@H]3C#N)cc2)c1`, the AC50 on Paired box protein Pax-8 is 19.5 µM (active); in [1], 34.4 µM (active); in test [2], 6.07 µM (active); in [3] it was 10.8 µM (active); in test [4] it was > 70 µM (inactive); in test [5], 25.5 µM (active).
Regarding `CC(C)(O)c1ccccc1CC[C@@H](SCC1(CC(=O)O)CC1)c1cccc(/C=C/c2ccc3ccc(Cl)cc3n2)c1` [MONTELUKAST SODIUM], the EC50 in [6] is 1.19 µM (active); at Streptokinase A it was 3.41 µM (active); in the test with Streptococcus it was 7.96 µM (active). Moreover, the IC50 was 6.18 µM (active) in test [7], 20.6 µM (active) in test [8], > 40 µM (inactive) in test [9] and 20.7 µM (inactive) in [10].
`C[C@@H]1CN([C@H](C)CO)C(=O)c2c(c3ccccc3n2C)-c2ccccc2CO[C@@H]1CN(C)S(=O)(=O)c1ccc([N+](=O)[O-])cc1`: the concentration at half-maximal activity (AC50) in test [11] is 7.62 µM (active).
For `CCOc1ccccc1NC(=O)c1cccc(NC(=O)c2ccccc2)c1`, the IC50 in test [12] was 2.14 µM (active); in [13], 1.43 µM (active); in test [14], 0.06 µM (active); in [15], 0.121 µM (active).

(Values after ChEMBL document CHEMBL1201862, “PubChem BioAssay data set” (2004).)
